Earlier results as cited in patent US12611407B2, “Gastro-resistant high-strength formulation containing posaconazole” (Alfred E. Tiefenbacher (GmbH & Co. KG), priority 2020, dated 2026).

Legend:
[1] = not given; remark: listed apart in the source

aqueous solubility	water solubility compared with form I	stability of the crystalline form ([1]; normal storage conditions or specific stress conditions)	SMILES	stability in an aqueous suspension compared with form I ([1]; aqueous suspension)
low aqueous solubility			CC[C@@H]([C@H](C)O)n1ncn(-c2ccc(N3CCN(c4ccc(OC[C@@H]5CO[C@@](Cn6cncn6)(c6ccc(F)cc6F)C5)cc4)CC3)cc2)c1=O [Posaconazole]	
	better water solubility		CC[C@@H]([C@H](C)O)n1ncn(-c2ccc(N3CCN(c4ccc(OC[C@@H]5CO[C@@](Cn6cncn6)(c6ccc(F)cc6F)C5)cc4)CC3)cc2)c1=O [form IV, posaconazole]	better stability in an aqueous suspension
	better water solubility	as stable as form I	CC[C@@H]([C@H](C)O)n1ncn(-c2ccc(N3CCN(c4ccc(OC[C@@H]5CO[C@@](Cn6cncn6)(c6ccc(F)cc6F)C5)cc4)CC3)cc2)c1=O [form Y, posaconazole]	
